Tests used:
tobacco bud worm = settings: tobacco budworm; cited from earlier work
[1] = test system: ova from cat flea (Ctenocephalides felis); assay: Activity against C. felis ova (larval emergence in treated vials); assay type: in vivo
Description: Activity Against C. Felis Ova
Evaluation of test compounds against flea ova is a commonly-used assay for the determination of commercial efficacy against these insect parasites (McTier T L et al., Evaluation of the effects of selamectin against adult and immature stages of fleas (Ctenocephalides felis felis) on dogs and cats. Vet Parasitol. 2000 Aug. 23; 91(3-4):201-12; Dryden M et al., Efficacy of a topically applied formulation of metaflumizone on cats against the adult cat flea, flea egg production and hatch, and adult flea emergence. Vet Parasitol. 2007 Dec. 15; 150(3):263-7). Compounds were dissolved in acetone and 100 μl of each solution was placed in 5 ml glass vials and allowed to air dry. Forty ova from cat flea (Ctenocephalides felis) that were less than 48 hours old as well as flea dirt (primarily adult flea fecal material and host dander) were placed in the vials. Vials were covered with paper towels to allow air exchange and incubated at 25° with 90% humidity for 5 days, and the number of larvae were counted.

[2] = rat versus trout liver microsomes; cited from earlier work
cabbage looper = settings: cited from earlier work
fish, mammals = settings: fish versus mammals; cited from earlier work
cotton aphids = settings: cited from earlier work
[3] = test system: Larval-stage lone star ticks (Amblyomma americanum); assay: Dip survival assay (larval immersion microassay) against A. americanum larvae; assay type: in vivo; settings: submerged 30 minutes, counted after 24 hours
Description: Activity Against A. Americanum Larvae in a Dip Survival Assay
Using a previously-described protocol that can effectively predict compound potency against adult ticks in the field (White, W H. et al., An in vitro larval immersion microassay for identifying and characterizing candidate acaricides. J Med Entomol. 2004 November; 41(6):1034-42), test compounds from a dimethyl sulfoxide (DMSO) stock or 2% DMSO alone were dispensed into a round-bottom 96-well plate and mixed with aqueous buffer containing 1% ethanol and 0.2% Triton X100. […] Larval-stage lone star ticks (Amblyomma americanum) were dispensed into the wells containing test compounds and submerged for 30 minutes. The ticks were subsequently dispensed into a tissue biopsy bag, which is allowed to dry for 1 hour. After drying, the bags were incubated at 25° with 95% humidity for 24 hours and the number of live and dead larvae were counted.

mosquito larvae = settings: cited from earlier work
southern corn rootworm = settings: cited from earlier work
tobacco budworm = settings: cited from earlier work

Compound	metabolism (tobacco bud worm)	Flea larvae emerging, percent of total eggs, from 40 ova after 5 days ([1]; 10 μg per vial) [%]	Number of flea larvae emerging from 40 ova after 5 days ([1]; 10 μg per vial)	Flea larvae emerging, percent of total eggs, from 40 ova after 5 days ([1]; 100 μg per vial)	Number of flea larvae emerging from 40 ova after 5 days ([1]; 100 μg per vial)	Flea larvae emerging, percent of total eggs, from 40 ova after 5 days ([1]; 1 mg per vial)	Number of flea larvae emerging from 40 ova after 5 days ([1]; 1 mg per vial)	degradation by liver microsomes [2]	LC50 (cabbage looper) [ppm]	toxicity (fish, mammals)	LC50 (cotton aphids) [ppm]	Number of live/total tick larvae 24 hours after treatment ([3]; concentration 0.001%)	Number of live/total tick larvae 24 hours after treatment ([3]; concentration 0.01%)	Number of live/total tick larvae 24 hours after treatment ([3]; concentration 0.05%)	LC50 (mosquito larvae) [ppm]	activity (LC50) (southern corn rootworm)	activity (LC50) (tobacco budworm)
CC(C)(C)c1ccc(CCOc2ncnc3ccccc23)cc1 [Formula I, 4-tert-butylphenethyl quinazolin-4-yl ether]	extensively metabolized	10	4	2.5%	1	2.5%	1	degraded more extensively by rat liver microsomes than by trout liver microsomes	188	higher toxicity of the compound to fish than to mammals	2.6	23/80	0/51	0/48	0.725	greater than 400 ppm	greater than 400 ppm
CCc1nn(C)c(C(=O)NCc2ccc(Oc3ccc(C)cc3)cc2)c1Cl [Formula IV, 4-chloro-3-ethyl-1-methyl-N-[4-(p-tolyloxy)benzyl]pyrazole-5-carboxamide]	–	15	6	0 (0%)	0 (0%)	0 (0% )	0 (0% )	–	–	–	–	58/114	0/79	0/76	–	–	–
CCc1nn(C)c(C(=O)NCc2ccc(C(C)(C)C)cc2)c1Cl [Formula II, 4-chloro-5-ethyl-2-methyl-N-[(4-tert-butylphenyl)methyl]pyrazole-3-carboxamide]	–	17.5	7	2.5%	1	2.5%	1	–	–	–	–	38/85	0/77	0/69	–	–	–
